{
  "source": "ChEMBL document CHEMBL1136464",
  "about": "“Array synthesis of novel lipodepsipeptide” (Bioorg Med Chem Lett, 2003)",
  "assay_type_in_all_cases": "functional",
  "key": {"Enterococcus faecalis [1]": {"tested_on": "Enterococcus faecalis", "assay": "Antibacterial activity against Enterococcus faecalis ATCC 6569 at 0 % serum in mice"}, "Staphylococcus aureus [2]": {"tested_on": "Staphylococcus aureus", "assay": "Antibacterial activity against methicillin-resistant staphylococcus aureus ATCC 43300 at 10 % serum in mice"}, "Enterococcus faecium [3]": {"tested_on": "Enterococcus faecium", "assay": "Antibacterial activity against Enterococcus faecium ATCC 49452 at 10 % serum in mice", "conditions": "ATCC 49452, Serum"}, "Enterococcus faecalis [4]": {"tested_on": "Enterococcus faecalis", "assay": "Antibacterial activity against Enterococcus faecalis ATCC 6569 at 10 % serum in mice"}, "Enterococcus faecium [5]": {"tested_on": "Enterococcus faecium", "assay": "Antibacterial activity against Enterococcus faecium ATCC 49452 at 0 % serum in mice"}, "Staphylococcus aureus [6]": {"tested_on": "Staphylococcus aureus", "assay": "Antibacterial activity against methicillin-resistant staphylococcus aureus ATCC 43300 at 0 % serum in mice"}},
  "data": [
    {"smiles": "CCCCCCCCCC(=O)N[C@@H](Cc1c[nH]c2ccccc12)C(=O)N[C@H](CC(N)=O)C(=O)N[C@@H](CC(=O)O)C(=O)N[C@@H]1C(=O)NCC(=O)N[C@@H](CCCN)C(=O)N[C@@H](CC(=O)O)C(=O)N[C@H](C)C(=O)N[C@@H](CC(=O)O)C(=O)NCC(=O)N[C@H](CO)C(=O)N[C@@H]([C@H](C)CC(=O)O)C(=O)N[C@@H](CC(=O)c2ccccc2N)C(=O)O[C@@H]1C", "values": [
      {"measurement": "MIC", "setting": "Enterococcus faecalis [1]", "result": 1.56, "unit": "µg/mL"},
      {"measurement": "MIC", "setting": "Staphylococcus aureus [2]", "result": 0.78, "unit": "µg/mL"},
      {"measurement": "MIC", "setting": "Enterococcus faecium [3]", "result": 1.56, "unit": "µg/mL"},
      {"measurement": "MIC", "setting": "Enterococcus faecalis [4]", "result": 3.13, "unit": "µg/mL"},
      {"measurement": "MIC", "setting": "Enterococcus faecium [5]", "result": 1.56, "unit": "µg/mL"},
      {"measurement": "MIC", "setting": "Staphylococcus aureus [6]", "result": 0.78, "unit": "µg/mL"}
    ]}
  ]
}
